Where two headings read alike, the source gives them in different places.
Tests used:
HDAC6 = tested on: HDAC6; parameters: method as in earlier work; details: Figure 1; ref 'Data taken from refs' (numbers not given); cited from earlier work
human recombinant HDAC3 = human recombinant HDAC3 (Homo sapiens, UniProt O15379); test: Fluorescence-based biochemical HDAC enzyme inhibition assay (ZMAL substrate)
Description: (§2) First, the inhibitory activity and isoform selectivity of compounds and controls (see Figure ) was evaluated in a fluorescence-based biochemical HDAC inhibition assay against recombinant HDAC1, HDAC2, HDAC3, and HDAC6. […] First, 3-fold serial dilutions of test compounds were prepared in DMSO. […] IC50 values were determined by generating normalized dose–response curves using the three-parameter logistic equation (GraphPad Prism 8.0, San Diego, USA).

[1] = tested on: HDACs in MDA-MB-231 cells; test: HDAC whole cell inhibition assay; details: for EC50: Homo sapiens, MDA-MB-231, light or radiation study, read-out: whole-cell HDAC inhibition EC50, MDA-MB-231
Description: (§3) Furthermore, we determined the EC50 values in the nontumorigenic cell line HEK293 and in the hematological cancer cell line MM.1S.
(§4) For this purpose, 3-fold serial dilutions of test compounds (DMSO) were prepared and added at a volume of 0.5 μL to the cells. […] MAL was used in a final concentration of 0.3 mM in the respective cell culture medium with 0.5% IGEPAL CA-630 (Catalog# J61055, Alfa Aesar). […] The obtained data were normalized to vehicle treated cells, considering 100% enzyme activity. IC50 values were determined by generating dose–response curves using the four-parameter logistic equation (GraphPad Prism 8.0, San Diego, USA).

HDACs in MV-3 cells = test: HDAC whole cell inhibition assay; details: for EC50: Homo sapiens, MV-3, light or radiation study, read-out: whole-cell HDAC inhibition EC50, MV-3
Description: as §3, §4

[2] = HPLC photolysis experiments (release of ST13 from ST17); type: physicochemical; details: 10 min
Description: The deprotection of ST17 and its effective conversion (82%) to its parent HDAC inhibitor ST13 upon irradiation (10 min; λ = 365 nm) was confirmed by high-performance liquid chromatography (HPLC) experiments (see Figure S3, Supporting Information). Next, ST17 was tested for its inhibitory activity against HDAC1, HDAC2, HDAC3, and HDAC6 with and without irradiation at 365 nm (see Table ).
For the deprotection experiments, 10 μL of a 1 mM ST17 solution in DMSO were irradiated for 10 min. Subsequently, samples were diluted with acetonitrile to a final concentration of 100 μM and analyzed via HPLC/UV (λquant = 250 nm) using the area under the curve (area [mAU × min]) for quantification. The amount of ST13 released from the photocager ST17 was quantified using a calibration curve of ST13 (see Figure S2).

human recombinant HDAC6 = biological target: T1, human recombinant HDAC6 (Homo sapiens, UniProt Q9UBN7); test: Fluorescence-based biochemical HDAC enzyme inhibition assay (ZMAL substrate)
T1 sequence (Q9UBN7 1-1215): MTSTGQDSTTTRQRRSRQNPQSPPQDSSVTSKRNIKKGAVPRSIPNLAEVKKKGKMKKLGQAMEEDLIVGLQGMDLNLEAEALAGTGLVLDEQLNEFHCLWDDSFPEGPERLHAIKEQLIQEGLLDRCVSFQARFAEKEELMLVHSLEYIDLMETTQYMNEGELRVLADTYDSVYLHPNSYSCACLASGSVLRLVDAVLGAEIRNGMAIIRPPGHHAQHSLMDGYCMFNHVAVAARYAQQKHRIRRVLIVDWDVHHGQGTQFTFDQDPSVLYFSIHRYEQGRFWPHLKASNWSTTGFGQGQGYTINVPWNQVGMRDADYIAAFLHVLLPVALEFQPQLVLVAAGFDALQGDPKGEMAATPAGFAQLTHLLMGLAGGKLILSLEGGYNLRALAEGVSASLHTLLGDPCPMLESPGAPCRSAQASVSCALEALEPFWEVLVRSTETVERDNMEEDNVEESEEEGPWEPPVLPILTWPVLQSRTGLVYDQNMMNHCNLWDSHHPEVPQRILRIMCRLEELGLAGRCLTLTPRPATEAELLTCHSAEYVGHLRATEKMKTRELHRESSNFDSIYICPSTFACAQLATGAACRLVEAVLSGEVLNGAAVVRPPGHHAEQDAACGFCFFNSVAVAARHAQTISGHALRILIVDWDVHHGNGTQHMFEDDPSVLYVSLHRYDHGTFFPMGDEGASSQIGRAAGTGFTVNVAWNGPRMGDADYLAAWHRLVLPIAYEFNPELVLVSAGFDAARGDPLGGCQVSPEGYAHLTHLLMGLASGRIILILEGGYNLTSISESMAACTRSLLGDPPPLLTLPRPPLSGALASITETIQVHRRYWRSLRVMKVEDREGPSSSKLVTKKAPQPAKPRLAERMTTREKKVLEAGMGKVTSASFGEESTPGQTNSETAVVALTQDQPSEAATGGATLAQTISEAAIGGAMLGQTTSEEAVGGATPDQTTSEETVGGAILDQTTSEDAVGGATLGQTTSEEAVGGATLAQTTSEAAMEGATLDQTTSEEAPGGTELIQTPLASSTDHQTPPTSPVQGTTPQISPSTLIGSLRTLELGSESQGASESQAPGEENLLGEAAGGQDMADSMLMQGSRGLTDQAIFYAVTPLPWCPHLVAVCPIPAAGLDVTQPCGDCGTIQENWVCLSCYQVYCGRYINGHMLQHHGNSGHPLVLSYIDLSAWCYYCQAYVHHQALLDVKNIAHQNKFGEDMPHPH
Description: as §2

MDA-MB-231 cells = test: MTT cell viability (antiproliferative) assay; type: cell-based; details: Homo sapiens, MDA-MB-231, light or radiation study
Description: (§1) To evaluate the cytotoxicity of the selected HDAC inhibitors, compounds were tested for their antiproliferative activity against MV-3 and MDA-MB-231 cells using the MTT assay. […] MTT (3-(4,5-dimethylthiazol-2-yl)-2,5-diphenyltetrazolium bromide; Catalog# A2231; BioChemica, Applichem GmbH, Darmstadt, Germany) was utilized to measure the antiproliferative effect. Depending on the incubation time, 3000 MV-3 cells (72 h), 2000 MV-3 cells (96 h) or 1000 MV-3 cells (120 h) per well were seeded in 96-well plates (Starlab GmbH, Hamburg, Germany) with each well containing 199 μL of volume. […] Next, predilutions of the test compounds were prepared in DMSO. […] Subsequently, cells were treated with 1.0 μL of the dilution series of the test compounds. […] After removing the supernatant, formazan was solubilized in 200.0 μL DMSO. The absorbance was measured at 570 nm with background subtraction at 690 nm using a Multiskan microplate photometer (Thermo Fisher Scientific, Waltham, MA, USA). The obtained data were normalized to PBS, considering 100% viability.

HDAC1 = HDAC1 (Homo sapiens, UniProt Q13547); test: Fluorescence-based biochemical HDAC enzyme inhibition assay (ZMAL substrate)
Chain of HDAC1 (Q13547 whole entry): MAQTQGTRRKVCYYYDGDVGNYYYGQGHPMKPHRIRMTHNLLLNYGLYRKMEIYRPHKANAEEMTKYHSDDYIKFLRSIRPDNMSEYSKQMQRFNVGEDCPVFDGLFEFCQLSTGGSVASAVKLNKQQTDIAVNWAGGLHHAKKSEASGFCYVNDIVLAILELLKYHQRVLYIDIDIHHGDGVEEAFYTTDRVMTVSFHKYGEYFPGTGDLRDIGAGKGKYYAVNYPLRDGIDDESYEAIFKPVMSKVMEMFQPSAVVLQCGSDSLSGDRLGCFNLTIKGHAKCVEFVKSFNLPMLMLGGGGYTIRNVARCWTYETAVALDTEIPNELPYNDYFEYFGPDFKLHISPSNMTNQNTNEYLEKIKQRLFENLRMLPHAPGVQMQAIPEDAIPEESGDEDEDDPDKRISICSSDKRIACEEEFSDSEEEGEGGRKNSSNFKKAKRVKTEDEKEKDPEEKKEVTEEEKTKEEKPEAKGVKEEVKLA
Description: as §2

MV-3 cells = test: MTT cell viability (antiproliferative) assay; type: cell-based, human; details: Homo sapiens, read-out: MV-3 EC50 (MTT)
Description: as §1

HDAC2 = HDAC2 (Homo sapiens, UniProt Q92769); test: Fluorescence-based biochemical HDAC enzyme inhibition assay (ZMAL substrate)
Chain of HDAC2 (Q92769 whole entry): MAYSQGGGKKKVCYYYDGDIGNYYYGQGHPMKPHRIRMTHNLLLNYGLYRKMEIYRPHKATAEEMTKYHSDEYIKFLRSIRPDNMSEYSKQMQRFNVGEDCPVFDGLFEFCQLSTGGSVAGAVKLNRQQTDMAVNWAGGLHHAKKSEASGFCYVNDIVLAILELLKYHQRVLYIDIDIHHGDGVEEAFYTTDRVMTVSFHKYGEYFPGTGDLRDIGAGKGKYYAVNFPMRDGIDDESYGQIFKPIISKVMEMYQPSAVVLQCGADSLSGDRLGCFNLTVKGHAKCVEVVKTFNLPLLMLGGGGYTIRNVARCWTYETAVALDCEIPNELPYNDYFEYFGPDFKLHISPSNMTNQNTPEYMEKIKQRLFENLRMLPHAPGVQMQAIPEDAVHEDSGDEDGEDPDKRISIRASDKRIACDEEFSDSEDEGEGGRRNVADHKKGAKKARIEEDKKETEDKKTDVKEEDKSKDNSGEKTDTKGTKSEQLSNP
Description: as §2

[3] = HDAC1 IC50, preincubation of enzyme and inhibitor 1 h at RT, no irradiation
[4] = HDAC2 IC50, preincubation of enzyme and inhibitor 1 h at RT, no irradiation

Chain of human recombinant HDAC3 (O15379 whole entry): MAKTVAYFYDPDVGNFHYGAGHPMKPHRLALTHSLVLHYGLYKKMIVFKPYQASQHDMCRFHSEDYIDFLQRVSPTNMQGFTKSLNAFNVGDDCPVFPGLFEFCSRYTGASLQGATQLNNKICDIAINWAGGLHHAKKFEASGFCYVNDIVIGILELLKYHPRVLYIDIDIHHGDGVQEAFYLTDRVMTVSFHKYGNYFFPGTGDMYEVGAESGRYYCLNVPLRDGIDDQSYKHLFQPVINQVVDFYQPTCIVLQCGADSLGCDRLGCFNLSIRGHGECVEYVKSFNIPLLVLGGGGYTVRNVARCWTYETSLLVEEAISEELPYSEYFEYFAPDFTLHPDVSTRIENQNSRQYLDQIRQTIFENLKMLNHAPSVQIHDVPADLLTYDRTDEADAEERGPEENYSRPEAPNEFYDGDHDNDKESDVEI
Chain of human recombinant HDAC3 (Q9Y618 395-489 partner limits assumed): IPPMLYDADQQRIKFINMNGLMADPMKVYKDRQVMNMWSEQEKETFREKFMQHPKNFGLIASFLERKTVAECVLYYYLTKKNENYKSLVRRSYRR

In the case of `CCCNNC(=O)c1ccc(CN(CC(=O)NCc2ccccc2)C(=O)c2ccc(N(C)C)cc2)cc1` [compound 5], the IC50 (HDAC6) is listed as 10 µM.

`COc1cc(COc2ccc(-c3ccccc3)cc2NC(=O)c2ccc(NC(C)=O)cc2)c([N+](=O)[O-])cc1OC` [ST17, 4-Acetamido-N-(4-((4,5-dimethoxy-2-nitrobenzyl)-oxy)-[1,1′-biphenyl]-3-yl)-benzamide] gave an IC50 (human recombinant HDAC3; HDAC3 IC50, preincubation of enzyme and inhibitor 1 h at RT, no irradiation) greater than 10 µM, an IC50 (human recombinant HDAC3; HDAC3 IC50, with UV irradiation (10 min, 365 nm) of ST17, preincubation 1 h at RT) of 8.58 ± 0.76 µM and an EC50 ([1]; 18 h) of 3550 ± 2000 nM. The EC50 [1] was 783 ± 139 nM, the “increase of activity by light-induced activation compared to untreated ST17, MDA-MB-231” value ([1]; whole cell HDAC assay) was 4.5 fold and the EC50 (HDACs in MV-3 cells; 18 h) was 5.98 ± 1.24 µM. The EC50 (HDACs in MV-3 cells) was 0.392 ± 0.07 µM, the “increase of activity by light-induced activation compared to untreated ST17, MV-3” value (HDACs in MV-3 cells; whole cell HDAC assay) was 15 fold and the “conversion to parent HDAC inhibitor ST13 upon irradiation (HPLC)” value ([2]; λ = 365 nm, in DMSO, room temperature) was 82%. The “concentration of released ST13 following irradiation (HPLC)” value ([2]; initial ST17 concentration 100 µM, 365 nm) was 81.67 µM, the IC50 (human recombinant HDAC6) was greater than 10 µM and the IC50 (human recombinant HDAC6; read-out: HDAC6 IC50, with UV irradiation (10 min, 365 nm) of ST17, preincubation 15 min at RT) was greater than 10 µM. The EC50 (MDA-MB-231 cells; incubation time 120 h, no irradiation) was 11.2 ± 1.7 µM, the EC50 (MDA-MB-231 cells; with UV irradiation (10 min, 365 nm) of ST17, 120 h) was 6.78 ± 0.58 µM and the IC50 (HDAC1; [3]) was 840 ± 308 nM. The IC50 (HDAC1; HDAC1 IC50, with UV irradiation (10 min, 365 nm) of ST17, preincubation 1 h at RT) was 40 ± 8 nM, the EC50 (MV-3 cells; MV-3, light or radiation study, incubation time 120 h, no irradiation) was 16.2 ± 4.1 µM and the EC50 (MV-3 cells; MV-3, light or radiation study, with UV irradiation (10 min, 365 nm) of ST17, 120 h) was 4.64 ± 0.93 µM. It also gave an IC50 (HDAC2; [4]) of 1710 ± 830 nM and an IC50 (HDAC2; HDAC2 IC50, with UV irradiation (10 min, 365 nm) of ST17, preincubation 1 h at RT) of 72 ± 12 nM.

`CC(=O)Nc1ccc(C(=O)Nc2ccccc2O)cc1` [ST01, 4-Acetamido-N-(2-hydroxyphenyl)-benzamide] showed an IC50 (HDAC1; [3]) greater than 10000 nM and an IC50 (HDAC2; [4]) greater than 10000 nM.

`O=C(CCCCCCC(=O)Nc1ccccc1)NO` [vorinostat, reference compound] showed an EC50 (MV-3 cells; MV-3, 72 h) of 1.88 ± 0.73 µM.
